Test systems include LXFL 529; DMS-273; DLD-1; HOP-18; KM-20L2; SNB-78; RXF 631; DMS-114; XF498.
What all share (assay): inhibition of tumour cell growth, NCI panel, 48 h

Data on 25 compounds can be found in ChEMBL document CHEMBL1201862, “PubChem BioAssay data set” (2004).

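Following 48 hours of exposure in 96-well plates, responses at five concentrations were used to interpolate endpoints linearly. Abbreviation: GI50, concentration required for 50% inhibition of growth.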 Active and inactive are the calls of the source. Rule as the data show it: active = GI50 up to about 1.1 µM and inactive = higher.

On to `Cc1ccc(S(=O)(=O)NC2(C=O)CCCC3CCCCC32)cc1` (centres undefined), for which the GI50 in the experiment on LXFL 529, with DMS-273, in the experiment with DLD-1, with HOP-18, with KM-20L2 and in the experiment on SNB-78 was > 100 µM (inactive) in each case. The GI50 with RXF 631 and in the experiment on DMS-114 was > 100 µM (inactive) in each case.
Take `CC1=C(C(=O)Nc2cccc(C(F)(F)F)c2)C(c2ccc(O)cc2)C(C(=O)Nc2cccc(C(F)(F)F)c2)=C(C)N1`: the GI50 was 18.6 µM (inactive) with LXFL 529; 20.5 µM (inactive) in the experiment with DLD-1; 18.3 µM (inactive) in the experiment on KM-20L2; 23 µM (inactive) in the experiment on SNB-78; 2.61 µM (inactive) in the experiment on XF498; 14.8 µM (inactive) with RXF 631. For the same compound, in the experiment on DMS-114, the GI50 was 14.8 µM (inactive).
For the compound `CCC(CC)NC1=C(NC(C)=O)C(=O)c2ccccc2C1=O`, the GI50 with LXFL 529, with DMS-273, in the experiment on DLD-1, in the experiment with KM-20L2, in the experiment on SNB-78 and in the experiment on XF498 was > 50 µM (inactive) in each case.
`C=CCCC(C)N(C(=O)OC(C)(C)C)S(=O)(=O)c1ccc(C)cc1` (centres undefined): the GI50 with LXFL 529, in the experiment with DMS-273, with DLD-1, in the experiment with KM-20L2, in the experiment with SNB-78 and in the experiment on XF498 was > 100 µM (inactive) each time.
On to `CCN(CC)CCNc1ccc(C)c2sc3ccc(O)cc3c(=O)c12`, for which the GI50 with LXFL 529 is 1.28 µM (inactive); in the experiment with DMS-273, 0.162 µM (active); in the experiment on DLD-1, 1.66 µM (inactive); with HOP-18, 1.34 µM (inactive); in the experiment on KM-20L2, 2.14 µM (inactive); with SNB-78 it was 1.76 µM (inactive). The GI50 in the experiment with XF498 is 1.2 µM (inactive); in the experiment with DMS-114, 0.982 µM (active).
For the compound `NC(CCCC(N)P(=O)(O)c1ccccc1)P(=O)(O)c1ccccc1` (centres undefined), the GI50 with LXFL 529, in the experiment on DMS-273, in the experiment on DLD-1, with HOP-18, in the experiment with KM-20L2 and in the experiment on SNB-78 was > 261 µM (inactive) throughout. Besides, the GI50 in the experiment on XF498 and in the experiment with DMS-114 was > 261 µM (inactive) throughout.
Regarding `Oc1nc(CC(O)c2ccc(Cl)c(Cl)c2)cc(-c2ccccc2)n1` (centres undefined), the GI50 in the experiment on LXFL 529 is > 100 µM (inactive); in the experiment on DMS-273, > 100 µM (inactive); in the experiment on DLD-1 it was > 100 µM (inactive); in the experiment on HOP-18 it was > 100 µM (inactive); with KM-20L2 it was 60 µM (inactive); in the experiment with DMS-114, 38.9 µM (inactive).
For `CCOC(=O)/C(=C/c1ccc(N(C)C)cc1)N(CC)CC`, the GI50 with LXFL 529 was 34.6 µM (inactive); in the experiment with KM-20L2, > 100 µM (inactive); in the experiment on SNB-78, 69.3 µM (inactive); in the experiment with XF498, > 100 µM (inactive); with DMS-114, 54 µM (inactive).
As to `CCN1CCC(O)(/C=C/c2ccccc2)C(C(=O)/C=C/c2ccccc2)C1` (centres undefined), the GI50 in the experiment with LXFL 529 is 1.87 µM (inactive); with DMS-273 it was 1.68 µM (inactive); with DLD-1, 2.08 µM (inactive); in the experiment on HOP-18, 5.64 µM (inactive); in the experiment on KM-20L2, 2.62 µM (inactive); in the experiment on SNB-78, 3.33 µM (inactive). The GI50 in the experiment on XF498 is 5.65 µM (inactive); with RXF 631, 4.1 µM (inactive); with DMS-114, 2.08 µM (inactive).
Consider `Cc1cccc(NC(=O)C(=O)C2C(=O)NC(=O)NC2=O)c1C`, for which the GI50 in the experiment on LXFL 529, in the experiment with DMS-273, with DLD-1, with HOP-18, with KM-20L2 and in the experiment on SNB-78 was > 100 µM (inactive) throughout. Moreover, in the experiment with DMS-114, the GI50 is > 100 µM (inactive).
For the compound `COC(=O)c1ccc(/C=C/S(=O)(=O)c2ccccc2)cc1`, the GI50 in the experiment on LXFL 529, in the experiment with DMS-273, in the experiment with DLD-1, in the experiment with KM-20L2, in the experiment with SNB-78 and in the experiment with XF498 was > 100 µM (inactive) throughout. Moreover, the GI50 in the experiment on RXF 631 and in the experiment on DMS-114 was > 100 µM (inactive) each time.
For the compound `O=C1C(=O)C2(CC1S(=O)(=O)c1ccccc1)c1ccccc1-c1ccccc12` (centres undefined), the GI50 is 16.3 µM (inactive) with LXFL 529; 19.5 µM (inactive) in the experiment with DMS-273; 24.8 µM (inactive) in the experiment on DLD-1; > 10 µM (inactive) with HOP-18; 44 µM (inactive) in the experiment with KM-20L2; 17.5 µM (inactive) in the experiment with SNB-78. The GI50 in the experiment with DMS-114 is 22 µM (inactive).
With `Cc1ccc(C2[C@H]3C(=O)N(c4ccc(Cc5ccc(N6C(=O)[C@@H]7ON(c8ccccc8)C(c8ccc(C)cc8)[C@@H]7C6=O)cc5)cc4)C(=O)[C@H]3ON2c2ccccc2)cc1` (some centres undefined), the GI50 with LXFL 529, in the experiment with DMS-273, in the experiment on DLD-1, with HOP-18, with KM-20L2 and with XF498 was > 100 µM (inactive) throughout. Also, in the experiment on DMS-114, the GI50 was > 100 µM (inactive).
Consider `O=C1NC(=O)C(C(=O)C(=O)Nc2cc(Cl)ccc2Cl)C(=O)N1`, for which the GI50 in the experiment on LXFL 529, with DLD-1, with KM-20L2, with SNB-78, in the experiment with RXF 631 and in the experiment on DMS-114 was > 100 µM (inactive) throughout.
Turning to `O=C(Nc1ccccc1SC(/C=C/NNC1=NN=C(c2ccccc2)C(c2ccccc2)N1)c1ccccc1)c1ccc(Cl)cc1Cl` (centres undefined), the GI50 was 41.6 µM (inactive) in the experiment on DMS-273; 49.2 µM (inactive) with DLD-1; > 100 µM (inactive) with KM-20L2; 87.5 µM (inactive) with SNB-78; > 10 µM (inactive) in the experiment with XF498; 45.1 µM (inactive) in the experiment on DMS-114.
`COc1ccc(NC(=O)CC(=O)N/N=C/c2ccc(N(CCC#N)S(C)(=O)=O)cc2)cc1`: the GI50 with LXFL 529, with DMS-273, in the experiment on DLD-1, in the experiment on HOP-18, in the experiment with KM-20L2 and with SNB-78 was > 100 µM (inactive) in each case. Also, the GI50 in the experiment on RXF 631 and in the experiment on DMS-114 was > 100 µM (inactive) each time.
As for `c1cc2c(ncc3cscc32)s1`, the GI50 in the experiment on LXFL 529, in the experiment with DMS-273, in the experiment with DLD-1, in the experiment with SNB-78, with XF498 and in the experiment on RXF 631 was > 100 µM (inactive) in each case. In addition, the GI50 in the experiment with DMS-114 is > 100 µM (inactive).
On to `CC(=O)O[C@]12CCCCC1C1(O)C(O)CCCC[C@H]12` (some centres undefined), for which the GI50 in the experiment with LXFL 529, with DMS-273, in the experiment with HOP-18, in the experiment on KM-20L2, with SNB-78 and with DMS-114 was > 100 µM (inactive) throughout.
With `CCOC(=O)CCC(NC(=O)c1ccc(NCc2ccc3nc(-c4ccccc4)c(Cl)nc3c2)cc1)C(=O)OCC` (centres undefined), the GI50 in the experiment with LXFL 529 is 18.2 µM (inactive); in the experiment on DMS-273, 21.4 µM (inactive); in the experiment on DLD-1, 28.6 µM (inactive); with KM-20L2 it was 80.5 µM (inactive); in the experiment on SNB-78 it was 32.4 µM (inactive); in the experiment on XF498 it was 1.58 µM (inactive). The GI50 in the experiment on RXF 631 is 13.2 µM (inactive); in the experiment with DMS-114 it was 22.4 µM (inactive).
Regarding `NC(=O)C(=O)N/N=C(\CC1(O)C(=O)Nc2ccccc21)c1ccc2ccccc2c1` (centres undefined), the GI50 with LXFL 529 was 31.5 µM (inactive); with DMS-273, 28.2 µM (inactive); in the experiment with DLD-1, 37.8 µM (inactive); with HOP-18 it was 46.3 µM (inactive); with SNB-78, 72.9 µM (inactive); with XF498, 30.5 µM (inactive). Besides, in the experiment on DMS-114, the GI50 was 21.3 µM (inactive).
On to `CC(=O)OC12C=CC(=O)N1c1ccccc1C(=O)O2` (centres undefined), for which the GI50 is > 100 µM (inactive) in the experiment on LXFL 529; > 100 µM (inactive) with DMS-273; > 100 µM (inactive) with DLD-1; > 100 µM (inactive) in the experiment on HOP-18; > 100 µM (inactive) in the experiment with KM-20L2; 32.1 µM (inactive) with SNB-78. Also, in the experiment on XF498, the GI50 was > 100 µM (inactive).
`NC(=O)c1[nH]nc(C2OC(CO)C(O)C2O)c1O` (centres undefined): the GI50 with DMS-273 was 0.713 µM (active); in the experiment on DLD-1 it was 1.45 µM (inactive); in the experiment with HOP-18, 43 µM (inactive); in the experiment with KM-20L2, 2.76 µM (inactive); in the experiment on SNB-78 it was 37.7 µM (inactive); in the experiment with XF498 it was 71.9 µM (inactive). In addition, the GI50 with DMS-114 was 19.9 µM (inactive).
Regarding `Cc1cc(NS(=O)(=O)c2ccc(Nc3c4ccccc4nc4c(C(=O)NCCN(C)C)cccc34)cc2)no1`, the GI50 in the experiment on LXFL 529 was 3.6 µM (inactive); in the experiment with DMS-273 it was 2.86 µM (inactive); in the experiment on DLD-1, 11.8 µM (inactive); in the experiment with KM-20L2, 26.4 µM (inactive); in the experiment with SNB-78, 12.7 µM (inactive); in the experiment on XF498, 18.3 µM (inactive). In addition, the GI50 in the experiment with DMS-114 is 0.713 µM (active).
Turning to `COC(=O)C1C(=O)O[C@@H](c2ccc(OC)cc2OC)C1C(=O)OC` (some centres undefined), the GI50 in the experiment with LXFL 529, in the experiment on DMS-273, with DLD-1, with HOP-18, in the experiment on KM-20L2 and in the experiment on SNB-78 was > 100 µM (inactive) each time. Also, the GI50 with XF498 and in the experiment on DMS-114 was > 100 µM (inactive) throughout.
As for `CC1C=C[C@H](Sc2ccccc2)CC[C@@]1(C)O` (some centres undefined), the GI50 is 99.3 µM (inactive) in the experiment with LXFL 529; > 100 µM (inactive) in the experiment on DLD-1; > 100 µM (inactive) in the experiment on KM-20L2; > 100 µM (inactive) in the experiment on SNB-78; 55.8 µM (inactive) with DMS-114.
